Data as given in patent publication US8030498B2, “Benzoylpyrazole compounds and herbicides containing them” (Ishihara Sangyo Kaisha, Ltd., priority 2005, dated 2011).

Legend:
[1] = tested on: prickly sida (Sida spinosa L.); test: Test Example 1: foliar treatment, growth inhibition rate, prickly sida; assay type: in vivo; conditions: visually observed 17th to 23rd day after application
Text: (§1) Upland field soil was put into a 1/170,000 hectare pot, and seeds of various plants were sown. When the respective plants reached predetermined leaf stage ((1) barnyardgrass (Echinochloa crus-galli L.); 0.8 to 2.5 leaf stage, (2) crabgrass (Digitaria sanguinalis L.): 0.5 to 3.0 leaf stage, (3) greenfoxtail (Setaria viridis L.): 1.0 to 3.0 leaf stage, (4) redroot pigweed (Amaranthus retroflexus L.): cotyledon stage to 2.0 leaf stage, (5) prickly sida (Sida spinosa L.): cotyledon stage to 1.1 leaf stage, (6) velvetleaf (Abutilon theophrasti MEDIC.): cotyledon stage to 1.5 leaf stage, (7) rice (Oryza sativa L.): 1.0 to 2.5 leaf stage, (8) wheat (Triticum spp.): 1.7 to 3.4 leaf stage, (9) corn (Zea mays L.): 2.0 to 3.5 leaf stage, and (10) soybean (Glycine max Merr.): primary leaf stage to 0.3 leaf stage), wettable powders or emulsifiable concentrates of the compounds of the present invention prepared in accordance with a conventional preparation method, were weighed so that the active ingredients became the prescribed amounts, and diluted with water in an amount corresponding to 500 liter per 1 hectare. 0.1 vol % of an agricultural spreader was further added to the respective diluted liquids, followed by foliar treatment with a small sprayer.
(§2) On the 17th to 23rd day after application, the state of growth of the respective plants was visually observed, and the herbicidal effect was evaluated in accordance with a growth inhibition rate (%) of 0 (equivalent to the non-treated area) to 100% (complete kill).

[2] = tested on: velvetleaf (Abutilon theophrasti MEDIC.); test: Test Example 1: foliar treatment, growth inhibition rate, velvetleaf; assay type: in vivo; conditions: visually observed 17th to 23rd day after application
Text: as §1, §2

prickly sida = test: Test Example 2: soil application on the day after sowing, growth inhibition rate, prickly sida; assay type: in vivo, Sida spinosa L.; conditions: 250 g/ha active ingredient, observed on 19th to 24th day
Text: (§3) Upland field soil was put into a 1/170,000 hectare pot, and seeds of various plants (barnyardgrass, crabgrass, greenfoxtail, redroot pigweed, prickly sida, velvetleaf, rice, wheat, corn and soybean) were sown. On the day after sowing, wettable powders or emulsifiable concentrates of the compounds of the present invention prepared in accordance with a conventional preparation method, were weighed so that the active ingredients became the prescribed amounts, and diluted with water in an amount corresponding to 500 liter per 1 hectare, followed by soil application with a small sprayer. On the 19th to 24th day after the application, the state of growth of the respective plants was visually observed, and the herbicidal effect was evaluated in accordance with a growth inhibition rate (%) of from 0 (equivalent to the non-treated area) to 100% (complete kill).

[3] = tested on: soybean (Glycine max Merr.); test: Test Example 1: foliar treatment, growth inhibition rate, soybean; assay type: in vivo; conditions: visually observed 17th to 23rd day after application
Text: as §1, §2

crabgrass = test: Test Example 2: soil application on the day after sowing, growth inhibition rate, crabgrass; assay type: in vivo, Digitaria sanguinalis L.; conditions: 250 g/ha active ingredient, observed on 19th to 24th day
Text: as §3

rice (Oryza sativa L.) = test: Test Example 1: foliar treatment, growth inhibition rate, rice; assay type: in vivo; conditions: visually observed 17th to 23rd day after application
Text: as §1, §2

[4] = tested on: redroot pigweed (Amaranthus retroflexus L.); test: Test Example 1: foliar treatment, growth inhibition rate, redroot pigweed; assay type: in vivo; conditions: visually observed 17th to 23rd day after application
Text: as §1, §2

rice = test: Test Example 2: soil application on the day after sowing, growth inhibition rate, rice; assay type: in vivo, Oryza sativa L.; conditions: 250 g/ha active ingredient, observed on 19th to 24th day
Text: as §3

greenfoxtail = test: Test Example 2: soil application on the day after sowing, growth inhibition rate, greenfoxtail; assay type: in vivo, Setaria viridis L.; conditions: 250 g/ha active ingredient, observed on 19th to 24th day
Text: as §3

soybean = test: Test Example 2: soil application on the day after sowing, growth inhibition rate, soybean; assay type: in vivo, Glycine max Merr.; conditions: 250 g/ha active ingredient, observed on 19th to 24th day
Text: as §3

wheat (Triticum spp.) = test: Test Example 1: foliar treatment, growth inhibition rate, wheat; assay type: in vivo; conditions: visually observed 17th to 23rd day after application
Text: as §1, §2

redroot pigweed = test: Test Example 2: soil application on the day after sowing, growth inhibition rate, redroot pigweed; assay type: in vivo, Amaranthus retroflexus L.; conditions: 250 g/ha active ingredient, observed on 19th to 24th day
Text: as §3

velvetleaf = test: Test Example 2: soil application on the day after sowing, growth inhibition rate, velvetleaf; assay type: in vivo, Abutilon theophrasti MEDIC.; conditions: 250 g/ha active ingredient, observed on 19th to 24th day
Text: as §3

corn = test: Test Example 2: soil application on the day after sowing, growth inhibition rate, corn; assay type: in vivo, Zea mays L.; conditions: 250 g/ha active ingredient, observed on 19th to 24th day
Text: as §3

[5] = tested on: barnyardgrass (Echinochloa crus-galli L.); test: Test Example 1: foliar treatment, growth inhibition rate, barnyardgrass; assay type: in vivo; conditions: visually observed 17th to 23rd day after application
Text: as §1, §2

[6] = tested on: crabgrass (Digitaria sanguinalis L.); test: Test Example 1: foliar treatment, growth inhibition rate, crabgrass; assay type: in vivo; conditions: visually observed 17th to 23rd day after application
Text: as §1, §2

barnyardgrass = test: Test Example 2: soil application on the day after sowing, growth inhibition rate, barnyardgrass; assay type: in vivo, Echinochloa crus-galli L.; conditions: 250 g/ha active ingredient, observed on 19th to 24th day
Text: as §3

corn (Zea mays L.) = test: Test Example 1: foliar treatment, growth inhibition rate, corn; assay type: in vivo; conditions: visually observed 17th to 23rd day after application
Text: as §1, §2

[7] = tested on: greenfoxtail (Setaria viridis L.); test: Test Example 1: foliar treatment, growth inhibition rate, greenfoxtail; assay type: in vivo; conditions: visually observed 17th to 23rd day after application
Text: as §1, §2

wheat = test: Test Example 2: soil application on the day after sowing, growth inhibition rate, wheat; assay type: in vivo, Triticum spp.; conditions: 250 g/ha active ingredient, observed on 19th to 24th day
Text: as §3

For `CCSC(=O)Oc1c(C(=O)c2ccc(S(C)(=O)=O)c(CSC#N)c2C)cnn1C` [compound 231], which “Growth inhibition rate (%) Prickly sida” value ([1]; 63 g/ha active ingredient) is on record?
Its value is 40%.

And the “Growth inhibition rate (%) Velvetleaf” value ([2]; 63 g/ha active ingredient)?
The value was 80%.

And the “Growth inhibition rate (%) Prickly sida” value (prickly sida)?
The value was 0%.

What about the “Growth inhibition rate (%) Soybean” value ([3]; 63 g/ha active ingredient) of the same compound?
The value was 100%.

And the “Growth inhibition rate (%) Crabgrass” value (crabgrass)?
The value was 60%.

And the “Growth inhibition rate (%) Rice” value (rice (Oryza sativa L.); 63 g/ha active ingredient)?
Its value is 50%.

And the “Growth inhibition rate (%) redroot pigweed” value ([4]; 63 g/ha active ingredient)?
Its value is 80%.

What about the “Growth inhibition rate (%) Rice” value (rice) of the same compound?
Its value is 0%.

And the “Growth inhibition rate (%) Greenfoxtail” value (greenfoxtail)?
Its value is 0%.

What about the “Growth inhibition rate (%) Soybean” value (soybean) of the same compound?
The value was 0%.

What about the “Growth inhibition rate (%) Wheat” value (wheat (Triticum spp.); 63 g/ha active ingredient) of the same compound?
Its value is 0%.

What about the “Growth inhibition rate (%) redroot pigweed” value (redroot pigweed) of the same compound?
Its value is 50%.

What about the “Growth inhibition rate (%) Velvetleaf” value (velvetleaf) of the same compound?
The value was 0%.

What about the “Growth inhibition rate (%) Corn” value (corn) of the same compound?
Its value is 0%.

What about the “Growth inhibition rate (%) Barnyardgrass” value ([5]; 63 g/ha active ingredient) of the same compound?
The value was 100%.

What about the “Growth inhibition rate (%) Crabgrass” value ([6]; 63 g/ha active ingredient) of the same compound?
Its value is 70%.

And the “Growth inhibition rate (%) Barnyardgrass” value (barnyardgrass)?
The value was 70%.

And the “Growth inhibition rate (%) Corn” value (corn (Zea mays L.); 63 g/ha active ingredient)?
Its value is 0%.

What about the “Growth inhibition rate (%) Greenfoxtail” value ([7]; 63 g/ha active ingredient) of the same compound?
Its value is 40%.

For `CCSC(=O)Oc1c(C(=O)c2ccc(S(C)(=O)=O)c(OCC3CCCCO3)c2C)cnn1C` (stereo not drawn) [compound 215], which “Growth inhibition rate (%) Prickly sida” value ([1]; 31 g/ha active ingredient) is on record?
Its value is 50%.

And the “Growth inhibition rate (%) Velvetleaf” value ([2]; 31 g/ha active ingredient)?
The value was 50%.

What about the “Growth inhibition rate (%) Prickly sida” value (prickly sida) of the same compound?
The value was 40%.

What about the “Growth inhibition rate (%) Soybean” value ([3]; 31 g/ha active ingredient) of the same compound?
Its value is 95%.

What about the “Growth inhibition rate (%) Crabgrass” value (crabgrass) of the same compound?
Its value is 95%.

What about the “Growth inhibition rate (%) Rice” value (rice (Oryza sativa L.); 31 g/ha active ingredient) of the same compound?
Its value is 70%.

What about the “Growth inhibition rate (%) redroot pigweed” value ([4]; 31 g/ha active ingredient) of the same compound?
Its value is 95%.

And the “Growth inhibition rate (%) Rice” value (rice)?
Its value is 90%.

What about the “Growth inhibition rate (%) Greenfoxtail” value (greenfoxtail) of the same compound?
Its value is 70%.

What about the “Growth inhibition rate (%) Wheat” value (wheat) of the same compound?
The value was 0%.

What about the “Growth inhibition rate (%) Wheat” value (wheat (Triticum spp.); 31 g/ha active ingredient) of the same compound?
Its value is 0%.

And the “Growth inhibition rate (%) redroot pigweed” value (redroot pigweed)?
The value was 60%.

And the “Growth inhibition rate (%) Velvetleaf” value (velvetleaf)?
The value was 0%.

What about the “Growth inhibition rate (%) Corn” value (corn) of the same compound?
Its value is 0%.

What about the “Growth inhibition rate (%) Barnyardgrass” value ([5]; 31 g/ha active ingredient) of the same compound?
The value was 100%.

And the “Growth inhibition rate (%) Crabgrass” value ([6]; 31 g/ha active ingredient)?
Its value is 60%.

And the “Growth inhibition rate (%) Barnyardgrass” value (barnyardgrass)?
The value was 90%.

What about the “Growth inhibition rate (%) Corn” value (corn (Zea mays L.); 31 g/ha active ingredient) of the same compound?
Its value is 30%.

And the “Growth inhibition rate (%) Greenfoxtail” value ([7]; 31 g/ha active ingredient)?
Its value is 70%.

Which results are given for `CCn1ncc(C(=O)c2ccc(S(C)(=O)=O)c(OCCOC)c2C)c1OC(=O)SC` [compound 234]?
Growth inhibition rate (%) Prickly sida ([1]; 31 g/ha active ingredient): 50%; Growth inhibition rate (%) Velvetleaf ([2]; 31 g/ha active ingredient): 100%; Growth inhibition rate (%) Prickly sida (prickly sida): 20%; Growth inhibition rate (%) Soybean ([3]; 31 g/ha active ingredient): 100%; Growth inhibition rate (%) Crabgrass (crabgrass): 100%; Growth inhibition rate (%) Rice (rice (Oryza sativa L.); 31 g/ha active ingredient): 90%; Growth inhibition rate (%) redroot pigweed ([4]; 31 g/ha active ingredient): 100%; Growth inhibition rate (%) Rice (rice): 100%; Growth inhibition rate (%) Greenfoxtail (greenfoxtail): 100%; Growth inhibition rate (%) Soybean (soybean): 0%; Growth inhibition rate (%) Wheat (wheat (Triticum spp.); 31 g/ha active ingredient): 0%; Growth inhibition rate (%) redroot pigweed (redroot pigweed): 100%; Growth inhibition rate (%) Velvetleaf (velvetleaf): 70%; Growth inhibition rate (%) Corn (corn): 0%; Growth inhibition rate (%) Barnyardgrass ([5]; 31 g/ha active ingredient): 100%; Growth inhibition rate (%) Crabgrass ([6]; 31 g/ha active ingredient): 100%; Growth inhibition rate (%) Barnyardgrass (barnyardgrass): 100%; Growth inhibition rate (%) Corn (corn (Zea mays L.); 31 g/ha active ingredient): 0%; Growth inhibition rate (%) Greenfoxtail ([7]; 31 g/ha active ingredient): 100%
